Source: PubChem BioAssay (NCI)
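Cells were grown in 96-well plates and exposed to each compound for 48 hours at five concentrations; endpoints were interpolated linearly between bracketing concentrations, or set to the highest concentration if not reached. GI50 = concentration required for 50% inhibition of growth. TGI marks complete inhibition of growth.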

Tests used:
Assay in all cases: NCI tumour cell line growth inhibition, 48 h
DU-145 prostate = tested on: DU-145 prostate
MALME-3M melanoma = tested on: MALME-3M melanoma
EKVX NSCLC = tested on: EKVX NSCLC
SK-MEL-2 melanoma = tested on: SK-MEL-2 melanoma
786-0 renal = tested on: 786-0 renal
TK-10 renal = tested on: TK-10 renal
NCI-H226 lung = tested on: NCI-H226 lung
ACHN renal = tested on: ACHN renal
IGROV1 ovarian = tested on: IGROV1 ovarian
M14 melanoma = tested on: M14 melanoma
HT29 colon = tested on: HT29 colon
PC-3 prostate = tested on: PC-3 prostate
KM12 colon = tested on: KM12 colon
HOP-92 NSCLC = tested on: HOP-92 NSCLC
SW-620 colon = tested on: SW-620 colon
BT-549 breast = tested on: BT-549 breast
NCI-H522 lung = tested on: NCI-H522 lung
UO-31 renal = tested on: UO-31 renal
NCI/ADR-RES ovarian = tested on: NCI/ADR-RES ovarian
SF-268 CNS = tested on: SF-268 CNS
MOLT-4 leukemia = tested on: MOLT-4 leukemia
LOX IMVI melanoma = tested on: LOX IMVI melanoma
RPMI-8226 leukemia = tested on: RPMI-8226 leukemia
HL-60(TB) leukemia = tested on: HL-60(TB) leukemia
SF-295 CNS = tested on: SF-295 CNS
UACC-257 melanoma = tested on: UACC-257 melanoma
RXF 393 renal = tested on: RXF 393 renal
SK-OV-3 ovarian = tested on: SK-OV-3 ovarian
MDA-MB-231 breast = tested on: MDA-MB-231 breast
OVCAR-5 ovarian = tested on: OVCAR-5 ovarian
NCI-H23 lung = tested on: NCI-H23 lung
MDA-MB-435 = tested on: MDA-MB-435
T-47D breast = tested on: T-47D breast
SK-MEL-28 melanoma = tested on: SK-MEL-28 melanoma
HCC-2998 colon = tested on: HCC-2998 colon
CCRF-CEM leukemia = tested on: CCRF-CEM leukemia
OVCAR-8 ovarian = tested on: OVCAR-8 ovarian
SNB-75 CNS = tested on: SNB-75 CNS
OVCAR-4 ovarian = tested on: OVCAR-4 ovarian
SNB-19 CNS = tested on: SNB-19 CNS
HOP-62 NSCLC = tested on: HOP-62 NSCLC
MCF7 breast = tested on: MCF7 breast
SF-539 CNS = tested on: SF-539 CNS
COLO 205 colon = tested on: COLO 205 colon
NCI-H460 lung = tested on: NCI-H460 lung
HCT-15 colon = tested on: HCT-15 colon
CAKI-1 renal = tested on: CAKI-1 renal
A549 NSCLC = tested on: A549 NSCLC
A498 renal = tested on: A498 renal
SK-MEL-5 melanoma = tested on: SK-MEL-5 melanoma
SN12C renal = tested on: SN12C renal
HCT-116 colon = tested on: HCT-116 colon
HS 578T breast = tested on: HS 578T breast
OVCAR-3 ovarian = tested on: OVCAR-3 ovarian
U251 CNS = tested on: U251 CNS
SR leukemia = tested on: SR leukemia
UACC-62 melanoma = tested on: UACC-62 melanoma

`COc1ccc2c(c1)[nH]c(=O)c1c3cc(OC)c(OC)cc3cn21` was tested, and the GI50 (DU-145 prostate) was < 10 nM, the TGI (DU-145 prostate) was 59.4 nM and the GI50 (MALME-3M melanoma) was 16600 nM. It also gave a TGI (MALME-3M melanoma) of 44100 nM, a GI50 (EKVX NSCLC) of 31.2 nM and a TGI (EKVX NSCLC) of 18900 nM. For the same compound, the GI50 (SK-MEL-2 melanoma) was 30.3 nM, the TGI (SK-MEL-2 melanoma) was 20800 nM and the GI50 (786-0 renal) was 38.6 nM. It also gave a TGI (786-0 renal) of 15300 nM, a GI50 (TK-10 renal) of 386 nM and a TGI (TK-10 renal) of 17300 nM. For the same compound, the GI50 (NCI-H226 lung) was 70.1 nM, the TGI (NCI-H226 lung) was 24400 nM and the GI50 (ACHN renal) was < 10 nM. For the same compound, the TGI (ACHN renal) was 16100 nM, the GI50 (IGROV1 ovarian) was < 17.8 nM and the TGI (IGROV1 ovarian) was 233 nM. The GI50 (M14 melanoma) was < 10 nM, the TGI (M14 melanoma) was 11800 nM and the GI50 (HT29 colon) was < 10 nM. For the same compound, the GI50 (PC-3 prostate) was < 10 nM, the TGI (PC-3 prostate) was 1600 nM and the GI50 (KM12 colon) was < 10 nM. It also gave a TGI (KM12 colon) of 292 nM, a GI50 (HOP-92 NSCLC) of 27.2 nM and a TGI (HOP-92 NSCLC) of 17400 nM. The GI50 (SW-620 colon) was < 10 nM, the TGI (SW-620 colon) was 1520 nM and the GI50 (BT-549 breast) was < 24 nM. For the same compound, the TGI (BT-549 breast) was 861 nM, the GI50 (NCI-H522 lung) was < 10 nM and the TGI (NCI-H522 lung) was 12.5 nM. The GI50 (UO-31 renal) was < 10 nM, the TGI (UO-31 renal) was 17400 nM and the GI50 (NCI/ADR-RES ovarian) was < 10 nM. For the same compound, the TGI (NCI/ADR-RES ovarian) was < 13.3 nM, the GI50 (SF-268 CNS) was < 10 nM and the TGI (SF-268 CNS) was 1450 nM. The GI50 (MOLT-4 leukemia) was < 15.9 nM, the TGI (MOLT-4 leukemia) was 1160 nM and the GI50 (LOX IMVI melanoma) was < 10 nM. For the same compound, the TGI (LOX IMVI melanoma) was 1690 nM, the GI50 (RPMI-8226 leukemia) was < 13.4 nM and the GI50 (HL-60(TB) leukemia) was < 10 nM. For the same compound, the TGI (HL-60(TB) leukemia) was < 10.4 nM, the GI50 (SF-295 CNS) was < 10 nM and the TGI (SF-295 CNS) was 409 nM. The GI50 (UACC-257 melanoma) was 14700 nM, the TGI (UACC-257 melanoma) was 29500 nM and the GI50 (RXF 393 renal) was < 10 nM. For the same compound, the TGI (RXF 393 renal) was 1890 nM, the GI50 (SK-OV-3 ovarian) was < 11.1 nM and the TGI (SK-OV-3 ovarian) was 17500 nM. The GI50 (MDA-MB-231 breast) was 21.9 nM, the TGI (MDA-MB-231 breast) was 1060 nM and the GI50 (OVCAR-5 ovarian) was 41.1 nM. For the same compound, the TGI (OVCAR-5 ovarian) was 18100 nM, the GI50 (NCI-H23 lung) was < 17.3 nM and the TGI (NCI-H23 lung) was 16400 nM. The GI50 (MDA-MB-435) was < 10 nM, the TGI (MDA-MB-435) was < 10 nM and the GI50 (T-47D breast) was 15400 nM. For the same compound, the TGI (T-47D breast) was 35600 nM, the GI50 (SK-MEL-28 melanoma) was < 10 nM and the TGI (SK-MEL-28 melanoma) was 18200 nM. For the same compound, the GI50 (HCC-2998 colon) was < 10 nM, the TGI (HCC-2998 colon) was 76.8 nM and the GI50 (CCRF-CEM leukemia) was < 11.4 nM. It also gave a TGI (CCRF-CEM leukemia) of 1120 nM, a GI50 (OVCAR-8 ovarian) of 19.3 nM and a TGI (OVCAR-8 ovarian) of 14900 nM. The GI50 (SNB-75 CNS) was < 10 nM, the TGI (SNB-75 CNS) was 19700 nM and the GI50 (OVCAR-4 ovarian) was 38.4 nM. It also gave a TGI (OVCAR-4 ovarian) of 4720 nM, a GI50 (SNB-19 CNS) of 16 nM and a TGI (SNB-19 CNS) of 22300 nM. For the same compound, the GI50 (HOP-62 NSCLC) was 93.6 nM, the TGI (HOP-62 NSCLC) was 21000 nM and the GI50 (MCF7 breast) was 32.3 nM. The TGI (MCF7 breast) was 1280 nM, the GI50 (SF-539 CNS) was 17.5 nM and the TGI (SF-539 CNS) was 61.8 nM. For the same compound, the GI50 (COLO 205 colon) was < 10 nM, the TGI (COLO 205 colon) was 63.5 nM and the GI50 (NCI-H460 lung) was < 10 nM. For the same compound, the TGI (NCI-H460 lung) was 1040 nM, the GI50 (HCT-15 colon) was < 10 nM and the TGI (HCT-15 colon) was 1190 nM. The GI50 (CAKI-1 renal) was < 10 nM, the TGI (CAKI-1 renal) was < 10 nM and the GI50 (A549 NSCLC) was < 10 nM. The TGI (A549 NSCLC) was 1410 nM, the GI50 (A498 renal) was < 10 nM and the TGI (A498 renal) was 72 nM. For the same compound, the GI50 (SK-MEL-5 melanoma) was < 10 nM, the TGI (SK-MEL-5 melanoma) was 11200 nM and the GI50 (SN12C renal) was 12.4 nM. For the same compound, the TGI (SN12C renal) was 15200 nM, the GI50 (HCT-116 colon) was < 10 nM and the TGI (HCT-116 colon) was 1190 nM. The GI50 (HS 578T breast) was < 10 nM, the TGI (HS 578T breast) was < 23.1 nM and the GI50 (OVCAR-3 ovarian) was < 10 nM. For the same compound, the TGI (OVCAR-3 ovarian) was < 10 nM, the GI50 (U251 CNS) was < 10 nM and the TGI (U251 CNS) was 1350 nM. For the same compound, the GI50 (SR leukemia) was < 10 nM, the TGI (SR leukemia) was 96.1 nM and the GI50 (UACC-62 melanoma) was < 10 nM. For the same compound, the TGI (UACC-62 melanoma) was 21000 nM.
`N=C(N)c1ccc(-c2ccc(-c3cncc4ccccc34)s2)s1` showed a GI50 (DU-145 prostate) of 1550 nM, a TGI (DU-145 prostate) of 3000 nM and a GI50 (UACC-257 melanoma) of 2470 nM. It also gave a TGI (UACC-257 melanoma) of 5230 nM, a GI50 (OVCAR-8 ovarian) of 1830 nM and a TGI (OVCAR-8 ovarian) of 4400 nM. It also gave a GI50 (HS 578T breast) of 2220 nM and a TGI (HS 578T breast) of 4750 nM.
